Measurements as given in PMC6881558 (Biochimica et biophysica acta. General subjects, 2019).
“And” between values parts separate entries of the source, which are not always exact repeats. Equal values may be shown once.

Legend:
Bgp = Bgp (Borrelia burgdorferi, UniProt Q9F952); experiment: UV spectrophotometric MTN activity and kinetics assay, Bgp; type: biochemical; details: pH 7, mean ± SEM; for Km: substrate kinetics
MtnN = MtnN (Borrelia burgdorferi, UniProt O50860); experiment: UV spectrophotometric MTN activity and kinetics assay, MtnN; type: biochemical; details: pH 7, mean ± SEM; for Km: substrate kinetics
Pfs = Pfs (Borrelia burgdorferi, UniProt O50162); experiment: UV spectrophotometric MTN activity and kinetics assay, Pfs; type: biochemical; details: pH 5, mean ± SEM; for Km: substrate kinetics
Trichomonas vaginalis = details: cultured parasites; cited from earlier work
[1] = test system: B. burgdorferi strain N40; experiment: BacTiter-Glo bioluminescent cell viability assay; type: cell-based, Borrelia burgdorferi; details: Borreliella burgdorferi, N40, 24 h, read-out: IC50 (cell viability)
Plasmodium falciparum = details: purine-less cell death in malarial cultures; cited from earlier work
[2] = test system: C[C@H]1O[C@@H](n2cnc3c(N)ncnc32)[C@H](O)[C@@H]1O; experiment: UV spectrophotometric MTN activity and kinetics assay, Bgp; type: biochemical, Borrelia burgdorferi; details: other: Bgp, substrate kinetics, pH 7, mean ± SEM
[3] = substrate: C[C@H]1O[C@@H](n2cnc3c(N)ncnc32)[C@H](O)[C@@H]1O; experiment: UV spectrophotometric MTN activity and kinetics assay, MtnN; type: biochemical, Borrelia burgdorferi; details: other: MtnN, substrate kinetics, pH 7, mean ± SEM
[4] = substrate: C[C@H]1O[C@@H](n2cnc3c(N)ncnc32)[C@H](O)[C@@H]1O; experiment: UV spectrophotometric MTN activity and kinetics assay, Pfs; type: biochemical, Borrelia burgdorferi; details: other: Pfs, substrate kinetics, pH 5, mean ± SEM

`Nc1ncnc2c1ncn2[C@@H]1O[C@H](CSCC[C@H](N)C(=O)O)[C@@H](O)[C@H]1O` [SAH, S-adenosylhomocysteine] showed a kcat (Bgp) of 1.75 ± 0.2 s⁻¹, a Km (Bgp) of 1.96 ± 0.67 µM and a kcat (MtnN) of 0.55 ± 0.017 s⁻¹. It also gave a Km (MtnN) of 2.04 ± 0.44 µM, a kcat (Pfs) of 1.57 ± 0.083 s⁻¹ and a Km (Pfs) of 0.75 ± 0.16 µM.

For `Nc1nc(F)nc2c1ncn2[C@H]1C[C@H](O)[C@@H](CO)O1` [2-fluoro-2’-deoxyadenosine], the IC50 (Trichomonas vaginalis) is listed as 106 nM.

In the case of `CSCC1CN(Cc2c[nH]c3c(N)ncnc23)CC1O` (centres unmarked) [MT-DADMe-ImmA, 1-[(9-deazaadenin-9-yl)methyl]-3-hydroxy-4-(methylthiomethyl) pyrrolidine], the IC50 [1] is reported as 0.31 µg/mL and ~100 nM.

For `CC1(C)S[C@@H]2[C@H](NC(=O)[C@H](N)c3ccccc3)C(=O)N2[C@H]1C(=O)O` [ampicillin], the IC50 [1] was 1.07 µg/mL and 3.01 µM.

With `CCCCSCC1CN(Cc2c[nH]c3c(N)ncnc23)CC1O` (centres unmarked) [BuT-DADMe-ImmA, 1-[(9-deazaadenin-9-yl)methyl]-3-hydroxy-4-(butylthiomethyl)pyrrolidine] the IC50 [1] was 0.38 µg/mL and ~100 nM.

For `Nc1ncnc2c(C3N[C@H](CO)[C@@H](O)[C@H]3O)c[nH]c12` (some centres unmarked) [Immucillin-A (ImmA), Immucillin-A], the IC50 (Plasmodium falciparum) is given as 35 nM.

5’-methylthioadenosine [MTA] gave a kcat (Bgp) of 1.85 ± 0.333 s⁻¹, a Km (Bgp) of 0.49 ± 0.01 µM and a kcat (MtnN) of 1.55 ± 0.083 s⁻¹. For the same molecule, the Km (MtnN) was 9.1 µM and 9.09 µM, the kcat (Pfs) was 1.78 ± 0.05 s⁻¹ and the Km (Pfs) was 0.61 ± 0.16 µM.

With Bgp (Borreliella burgdorferi) the Km [2] was 1.79 ± 0.52 µM, the kcat [2] was 1.53 ± 0.467 s⁻¹ and the kcat/Km [2] was 850000 ± 267000 M⁻¹ s⁻¹.

B1: MtnN (Borreliella burgdorferi B31) (protein)
chain: NESKINTPNENSQSNILIISATKAEIEEINKIIQNKKYISIEEHRRKKKIAIGKLMDHNIITIATGVGKINTALWTSYIISKYKISHIINAGVASGIYSDKNKFIKIGDVVISTETTSYDFDLHRFGYEIGHVPEHPKKFKANTALIRKTSKIKINNITSYMGLIITGDQFIDHQTFQEIPEEFENAIAIDMESAAMAQVAYGFKIPFIIIRGISDIVNNENNYDDYKKFLKKASSSSAKIVENLIKLM
In the case of B1, the Km [3] is reported as 10.5 µM and 10.46 ± 0.75 µM, the kcat [3] is reported as 0.733 ± 0.0167 s⁻¹ and the kcat/Km [3] is reported as 66700 ± 5000 M⁻¹ s⁻¹.

B2: Pfs (Borreliella burgdorferi B31) (protein)
chain: MILIISAMQEESEEINKILDNKEEIVLNDYLENKKIYKGKILGKDVISLTTGIGKVNAATWSSQIISKYKITHIINSGSSGGIKENSNLKILDIIVSSETAYYDFDLTKFGHKIGQVPNLPQKFKADEELLKKVANIVDNKLLNIDIHIGLILTGDQFVDNEKNLETIKKNFKDALAVDMEGAAIAQVAHIFKIPFIIIRSISDLPNNKDNHIDFNKFLKTSSINSSKMTKELIRLI
In the case of B2, the Km [4] is reported as 1.37 ± 0.37 µM, the kcat [4] is reported as 2.7 ± 0.15 s⁻¹ and the kcat/Km [4] is reported as 1.97e+06 ± 400000 M⁻¹ s⁻¹.
